Test results reported in PubChem BioAssay AID1963863 (Molecular Pharmacology Branch, DTP, NCI, 2024).

Tested on: 931267-113-T-J1-PDC KRAS spheroid with HUVEC/MSC, viability
Test: Anticancer human tumor 931267-113-T-J1-PDC patient-derived colon adenocarcinoma cell line growth inhibition [KRAS2]
Settings: for IC50: curve of first compound; for viability, T/C: stronger effect = lower value
Text: Multicellular complex tumor spheroid response to RAS pathway inhibitors in combination with a targeted agents in patient-derived cell lines with oncogenic KRAS variants from multiple cancer types
A high-throughput screen of multi-cell type tumor spheroids was designed to identify active combinations of targeted small molecules and KRAS pathway inhibitors. Complex spheroids include a stromal component modeled by human endothelial cells (HUVEC) and fibroblasts modeled by human mesenchymal stem cells (MSCs). The concentration ranges selected for each drug and investigational agent were based upon clinically achievable concentrations if the clinical Cmax of the agent was known.
Compounds. The drugs and investigational agents: BI-3406 (NSC825286), BAY-293 (NSC824723), batoprotafib (TNO155; NSC825523), sotorasib (AMG 510; NSC818433), MRTX1257 (NSC819558), elimusertib (BAY 1895344; NSC800525), molibresib (GSK525762; NSC774829), temuterkib (LY3214996; NSC803410), venetoclax (NSC766270), alisertib (NSC759677), olaparib (NSC753686), talazoparib (NSC767125), erdafitinib (NSC781556), ipatasertib (NSC767898), cabozantinib (NSC761068), nintedanib (NSC756659), abemaciclib (NSC768073), docetaxel (NSC628503), trametinib (NSC758246), and sapanisertib (NSC764658) were obtained from the National Cancer Institute (NCI) Developmental Therapeutics Program Chemical Repository. The FDA-approved anticancer drug set is available from the Developmental Therapeutics Program. […] The stock solutions were prepared in dimethyl sulfoxide (DMSO, Sigma-Aldrich, St. Louis, MO, cat. D2650) at 800-fold the tested concentration and stored at -70 degrees C prior to their use. All drugs and investigational agents were tested over a range starting from a high concentration at or near the clinical Cmax and decreasing in half-log increments. If the clinical Cmax for an agent had not been determined, the highest concentration tested was 10 microM.
Cell Culture. All cells were maintained in an incubator at 37 degrees C and 5% CO2 with 95% humidity. The PDC lines were cultured according to standard operating procedures established by the NCI PDMR (https://pdmr.cancer.gov/sops/default.htm). Briefly, all PDCs were thawed and cultured in Matrigel-coated flasks prepared with a working solution of 1X Ham's F-12 nutrient mix, without supplementation (Invitrogen, Waltham, MA, cat. 11765054), 100 U/mL penicillin-streptomycin (Invitrogen, cat. 15140122), and 2.5% Matrigel (Corning Inc., Corning, NY, cat. 354248) for the first three passages. All PDCs were cultured in complete DMEM/F-12 media containing advanced DMEM/F-12 (Invitrogen, cat. 12634028), 4.9% defined fetal bovine serum, heat inactivated (HyClone Laboratories Inc., Logan, UT, cat. SH30070.03HI), 389 ng/mL hydrocortisone (Sigma-Aldrich, cat. H4001), 9.7 ng/mL human EGF recombinant protein (Invitrogen, cat. PHG0313), 23.4 microg/mL adenine (Sigma-Aldrich, cat. A2786), 97.3 U/mL penicillin-streptomycin (Invitrogen, cat. 15140122), 1.9 mM L-glutamine (Invitrogen, cat. 25030081), and 9.7 microM Y-27632 dihydrochloride (Tocris Bioscience, Bristol, United Kingdom, cat. 1254). The PDCs were cultured in complete DMEM/F12 media without 9.7 microM Y-27632 dihydrochloride for at least two passages prior to the screen. The established cell line HOP-62 was cultured in RPMI 1640 medium, HEPES (Invitrogen, cat. 22400105) with 10% defined fetal bovine serum (HyClone Laboratories Inc., cat. SH30070.03) and 2 mM L-glutamine (Invitrogen, cat. 25030081). The pooled donor HUVEC were cultured in endothelial cell growth medium 2 (PromoCell, Heidelberg, Germany, cat. C-22011) and the hMSC were cultured in mesenchymal stem cell growth medium 2 (PromoCell, cat. C-28009). For all experiments, HUVEC and hMSC were used at passages </=5, while the malignant cell lines were used at passages </=15. […]

[1] = second compound 0.1 µM, first compound 0.0316 µM
[2] = second compound 0.316 µM, first compound 0.0316 µM
[3] = second compound 1 µM, first compound 0.0316 µM
[4] = second compound 3.16 µM, first compound 0.0316 µM
[5] = second compound 10 µM, first compound 0.0316 µM
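Note: compound exposure lasted 7 days before the readout.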
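Throughout, for viability, T/C: 100% = DMSO vehicle control viability.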

## CC(=O)Nc1cccc(-n2c(=O)n(C3CC3)c(=O)c3c(Nc4ccc(I)cc4F)n(C)c(=O)c(C)c32)c1 + C=CC(=O)N1CCN(c2nc(=O)n(-c3c(C)ccnc3C(C)C)c3nc(-c4c(O)cccc4F)c(F)cc23)C(C)C1
Second compound 0.1 µM
  IC50: 10.5 nM
Second compound 0.316 µM
  IC50: 9.41 nM
Second compound 1 µM
  IC50: 11.3 nM
Second compound 3.16 µM
  IC50: 31.6 nM
Second compound 10 µM
  IC50: 2.79 nM
Second compound 0.1 µM, first compound 0.0001 µM
  viability, T/C: 88.7%
Second compound 0.1 µM, first compound 0.000316 µM
  viability, T/C: 81.9%
Second compound 0.1 µM, first compound 0.001 µM
  viability, T/C: 66.7%
Second compound 0.1 µM, first compound 0.00316 µM
  viability, T/C: 60.1%
Second compound 0.1 µM, first compound 0.01 µM
  viability, T/C: 62.9%
[1]
  viability, T/C: 9.67%
Second compound 0.316 µM, first compound 0.0001 µM
  viability, T/C: 97.1%
Second compound 0.316 µM, first compound 0.000316 µM
  viability, T/C: 94.5%
Second compound 0.316 µM, first compound 0.001 µM
  viability, T/C: 74.1%
Second compound 0.316 µM, first compound 0.00316 µM
  viability, T/C: 71.3%
Second compound 0.316 µM, first compound 0.01 µM
  viability, T/C: 53.8%
[2]
  viability, T/C: 10.6%
Second compound 1 µM, first compound 0.0001 µM
  viability, T/C: 88.5%
Second compound 1 µM, first compound 0.000316 µM
  viability, T/C: 97.4%
Second compound 1 µM, first compound 0.001 µM
  viability, T/C: 93.9%
Second compound 1 µM, first compound 0.00316 µM
  viability, T/C: 59.5%
Second compound 1 µM, first compound 0.01 µM
  viability, T/C: 62.6%
[3]
  viability, T/C: 12.9%
Second compound 3.16 µM, first compound 0.0001 µM
  viability, T/C: 123%
Second compound 3.16 µM, first compound 0.000316 µM
  viability, T/C: 99%
Second compound 3.16 µM, first compound 0.001 µM
  viability, T/C: 62.8%
Second compound 3.16 µM, first compound 0.00316 µM
  viability, T/C: 54%
Second compound 3.16 µM, first compound 0.01 µM
  viability, T/C: 64.7%
[4]
  viability, T/C: 19.6%
Second compound 10 µM, first compound 0.0001 µM
  viability, T/C: 85.8%
Second compound 10 µM, first compound 0.000316 µM
  viability, T/C: 82.4%
Second compound 10 µM, first compound 0.001 µM
  viability, T/C: 49.1%
Second compound 10 µM, first compound 0.00316 µM
  viability, T/C: 50.9%
Second compound 10 µM, first compound 0.01 µM
  viability, T/C: 44.7%
[5]
  viability, T/C: 28.3%

## COc1cc(Nc2ncc3c(n2)-c2ccc(Cl)cc2C(c2c(F)cccc2OC)=NC3)ccc1C(=O)O + C=CC(=O)N1CCN(c2nc(=O)n(-c3c(C)ccnc3C(C)C)c3nc(-c4c(O)cccc4F)c(F)cc23)C(C)C1
Second compound 0.1 µM
  IC50: > 10000 nM
Second compound 0.316 µM
  IC50: > 10000 nM
Second compound 1 µM
  IC50: > 10000 nM
Second compound 3.16 µM
  IC50: > 10000 nM
Second compound 10 µM
  IC50: > 10000 nM
[1]
  viability, T/C: 102%
Second compound 0.1 µM, first compound 0.1 µM
  viability, T/C: 114%
Second compound 0.1 µM, first compound 0.316 µM
  viability, T/C: 122%
Second compound 0.1 µM, first compound 1 µM
  viability, T/C: 99.9%
Second compound 0.1 µM, first compound 3.16 µM
  viability, T/C: 96.8%
Second compound 0.1 µM, first compound 10 µM
  viability, T/C: 103%
[2]
  viability, T/C: 101%
Second compound 0.316 µM, first compound 0.1 µM
  viability, T/C: 93.8%
Second compound 0.316 µM, first compound 0.316 µM
  viability, T/C: 98%
Second compound 0.316 µM, first compound 1 µM
  viability, T/C: 108%
Second compound 0.316 µM, first compound 3.16 µM
  viability, T/C: 95.2%
Second compound 0.316 µM, first compound 10 µM
  viability, T/C: 72.7%
[3]
  viability, T/C: 129%
Second compound 1 µM, first compound 0.1 µM
  viability, T/C: 109%
Second compound 1 µM, first compound 0.316 µM
  viability, T/C: 107%
Second compound 1 µM, first compound 1 µM
  viability, T/C: 127%
Second compound 1 µM, first compound 3.16 µM
  viability, T/C: 106%
Second compound 1 µM, first compound 10 µM
  viability, T/C: 83.3%
[4]
  viability, T/C: 126%
Second compound 3.16 µM, first compound 0.1 µM
  viability, T/C: 109%
Second compound 3.16 µM, first compound 0.316 µM
  viability, T/C: 103%
Second compound 3.16 µM, first compound 1 µM
  viability, T/C: 110%
Second compound 3.16 µM, first compound 3.16 µM
  viability, T/C: 107%
Second compound 3.16 µM, first compound 10 µM
  viability, T/C: 88.4%
[5]
  viability, T/C: 136%
Second compound 10 µM, first compound 0.1 µM
  viability, T/C: 111%
Second compound 10 µM, first compound 0.316 µM
  viability, T/C: 118%
Second compound 10 µM, first compound 1 µM
  viability, T/C: 127%
Second compound 10 µM, first compound 3.16 µM
  viability, T/C: 119%
Second compound 10 µM, first compound 10 µM
  viability, T/C: 90.3%
